Assay results as given in ChEMBL document CHEMBL3351528, “Targeting dopamine D3 and serotonin 5-HT1A and 5-HT2A receptors for developing effective antipsychotics: synthesis, biological characterization, and behavioral studies” (J Med Chem, 2014).
Calls of active or inactive are those of the source. The calls are words filed in the database; no cut-off is given here.

Columns and labels:
Heart [1] = experiment: Cardiotoxicity in Langendorff-perfused Sprague-Dawley rat heart assessed as heart rate at 0.01 uM (reference value: 296.25 +/- 13.61 bpm); type: toxicity, tissue-based
Heart [2] = experiment: Cardiotoxicity in Langendorff-perfused Sprague-Dawley rat heart assessed as heart rate at 0.1 uM (reference value: 296.25 +/- 13.61 bpm); type: toxicity, tissue-based
Heart [3] = experiment: Cardiotoxicity in Langendorff-perfused Sprague-Dawley rat heart assessed as heart rate at 1 uM (reference value: 296.25 +/- 13.61 bpm); type: toxicity, tissue-based
Heart [4] = experiment: Cardiotoxicity in Langendorff-perfused Sprague-Dawley rat heart assessed as heart rate at 10 uM (reference value: 296.25 +/- 13.61 bpm); type: toxicity, tissue-based
Heart [5] = experiment: Cardiotoxicity in Langendorff-perfused Sprague-Dawley rat heart assessed as cycle length time at 0.01 uM (reference value: 203.61 +/- 9.17 ms); type: toxicity, tissue-based
Heart [6] = experiment: Cardiotoxicity in Langendorff-perfused Sprague-Dawley rat heart assessed as cycle length time at 0.1 uM (reference value: 203.61 +/- 9.17 ms); type: toxicity, tissue-based
Heart [7] = experiment: Cardiotoxicity in Langendorff-perfused Sprague-Dawley rat heart assessed as cycle length time at 1 uM (reference value: 203.61 +/- 9.17 ms); type: toxicity, tissue-based
Heart [8] = experiment: Cardiotoxicity in Langendorff-perfused Sprague-Dawley rat heart assessed as cycle length time at 10 uM (reference value: 203.61 +/- 9.17 ms); type: toxicity, tissue-based
Heart [9] = experiment: Cardiotoxicity in Langendorff-perfused Sprague-Dawley rat heart assessed as atrioventricular conduction time at 0.01 uM (reference value: 41.98 +/- 2.55 ms); type: toxicity, tissue-based
Heart [10] = experiment: Cardiotoxicity in Langendorff-perfused Sprague-Dawley rat heart assessed as atrioventricular conduction time at 0.1 uM (reference value: 41.98 +/- 2.55 ms); type: toxicity, tissue-based
Heart [11] = experiment: Cardiotoxicity in Langendorff-perfused Sprague-Dawley rat heart assessed as atrioventricular conduction time at 1 uM (reference value: 41.98 +/- 2.55 ms); type: toxicity, tissue-based
Heart [12] = experiment: Cardiotoxicity in Langendorff-perfused Sprague-Dawley rat heart assessed as atrioventricular conduction time at 10 uM (reference value: 41.98 +/- 2.55 ms); type: toxicity, tissue-based
Heart [13] = experiment: Cardiotoxicity in Langendorff-perfused Sprague-Dawley rat heart assessed as intraventricular conduction time at 0.01 uM (reference value: 12.33 +/- 0.29 ms); type: toxicity, tissue-based, Cardiac ventricle
Heart [14] = experiment: Cardiotoxicity in Langendorff-perfused Sprague-Dawley rat heart assessed as intraventricular conduction time at 0.1 uM (reference value: 12.33 +/- 0.29 ms); type: toxicity, tissue-based, Cardiac ventricle
Heart [15] = experiment: Cardiotoxicity in Langendorff-perfused Sprague-Dawley rat heart assessed as intraventricular conduction time at 1 uM (reference value: 12.33 +/- 0.29 ms); type: toxicity, tissue-based, Cardiac ventricle
Heart [16] = experiment: Cardiotoxicity in Langendorff-perfused Sprague-Dawley rat heart assessed as intraventricular conduction time at 10 uM (reference value: 12.33 +/- 0.29 ms); type: toxicity, tissue-based, Cardiac ventricle
Heart [17] = experiment: Cardiotoxicity in Langendorff-perfused Sprague-Dawley rat heart assessed as time duration of ventricular depolarization and repolarization at 0.01 uM (reference value: 71.61 +/- 4.21 ms); type: toxicity, tissue-based
Heart [18] = experiment: Cardiotoxicity in Langendorff-perfused Sprague-Dawley rat heart assessed as time duration of ventricular depolarization and repolarization at 0.1 uM (reference value: 71.61 +/- 4.21 ms); type: toxicity, tissue-based
Heart [19] = experiment: Cardiotoxicity in Langendorff-perfused Sprague-Dawley rat heart assessed as time duration of ventricular depolarization and repolarization at 1 uM (reference value: 71.61 +/- 4.21 ms); type: toxicity, tissue-based
Heart [20] = experiment: Cardiotoxicity in Langendorff-perfused Sprague-Dawley rat heart assessed as time duration of ventricular depolarization and repolarization at 10 uM (reference value: 71.61 +/- 4.21 ms); type: toxicity, tissue-based
Heart [21] = experiment: Cardiotoxicity in Langendorff-perfused Sprague-Dawley rat heart assessed as corrected time duration of ventricular depolarization and repolarization at 0.01 uM (reference value: 159.41 +/- 11.21 ms); type: toxicity, tissue-based
Heart [22] = experiment: Cardiotoxicity in Langendorff-perfused Sprague-Dawley rat heart assessed as corrected time duration of ventricular depolarization and repolarization at 0.1 uM (reference value: 159.41 +/- 11.21 ms); type: toxicity, tissue-based
Heart [23] = experiment: Cardiotoxicity in Langendorff-perfused Sprague-Dawley rat heart assessed as corrected time duration of ventricular depolarization and repolarization at 1 uM (reference value: 159.41 +/- 11.21 ms); type: toxicity, tissue-based
Heart [24] = experiment: Cardiotoxicity in Langendorff-perfused Sprague-Dawley rat heart assessed as corrected time duration of ventricular depolarization and repolarization at 10 uM (reference value: 159.41 +/- 11.21 ms); type: toxicity, tissue-based
Mus musculus [25] = experiment: Toxicity in mouse assessed as induction of memory impairment by measuring […] to enter dark compartment at 10 mg/kg, po administered 30 mins before training by passive avoidance test; type: organism-based; parameters: dose 10 mg/kg, route oral; conditions: in vivo, 0.5 h
Mus musculus [26] = experiment: Antipsychotic-like activity in NMRI mouse assessed as reduction in […]-induced locomotor activity at 1 mg/kg, sc dosed 15 to 30 mins before administration of methamphetamine measured for 60 mins; type: functional, organism-based; parameters: dose 1 mg/kg
Mus musculus [27] = species: Mus musculus; conditions: in vivo, sc, 0.5 h
Description: Effect on spontaneous exploratory locomotor activity in sc dosed NMRI mouse measured for 30 mins with activity counts each 5 mins

Mus musculus [28] = species: Mus musculus; experiment: animal or person; conditions: NMRI, sc
Description: Antipsychotic-like activity in sc dosed NMRI mouse assessed as reduction in methamphetamine-induced locomotor activity dosed 15 to 30 mins before administration of methamphetamine measured for 60 mins

Mus musculus [29] = species: Mus musculus; experiment: animal or person; conditions: NMRI, sc; remark: listed apart in the source
Description: Antipsychotic-like activity in sc dosed NMRI mouse assessed as reduction in PCP-induced locomotor activity dosed 15 to 30 mins before administration of methamphetamine measured for 60 mins

## Cl.O=C(NCCCCN1CCN(c2ccccc2)CC1)c1ccc2ncccc2c1
Heart [1]
  Activity: 302.2 bpm
Heart [2]
  Activity: 308.58 bpm
Heart [3]
  Activity: 297.7 bpm
Heart [4]
  Activity: 280.67 bpm
Heart [5]
  Time: 199.43 ms
Heart [6]
  Time: 194.96 ms
Heart [7]
  Time: 204.53 ms
Heart [8]
  Time: 218.07 ms
Heart [9]
  Time: 41.95 ms
Heart [10]
  Time: 42.32 ms
Heart [11]
  Time: 41.51 ms
Heart [12]
  Time: 44.51 ms
Heart [13]
  Time: 13.17 ms
Heart [14]
  Time: 12.7 ms
Heart [15]
  Time: 13.38 ms
Heart [16]
  Time: 14.24 ms
Heart [17]
  Time: 70.61 ms
Heart [18]
  Time: 71.4 ms
Heart [19]
  Time: 71.03 ms
Heart [20]
  Time: 73.96 ms
Heart [21]
  Time: 158.61 ms
Heart [22]
  Time: 162.06 ms
Heart [23]
  Time: 158.14 ms
Heart [24]
  Time: 159.76 ms

## CN1CCN(C2=Nc3cc(Cl)ccc3Nc3ccccc32)CC1 [CLOZAPINE]
Mus musculus [25]
  Activity: Toxic
Mus musculus [26]
  Activity: Active
Mus musculus [27]
  ED50: 2.4 mg/kg
Mus musculus [28]
  ED50: 1.1 mg/kg
Mus musculus [29]
  ED50: 2.5 mg/kg
